How the values were obtained:
[1] = test system: K. pneumoniae strain expressing KPC-2; format: cell-based; conditions: single agent; K. pneumoniae ATCC 4683, phenotype KPC-2
Protocol: (§1) MIC Studies. Compounds were tested for synergy with the carbapenem antibiotic, imipenem, against BL21(DE3) E. coli expressing KPC-2. MIC values were determined with the Mueller-Hinton broth microdilution method. To test for inhibitory activity, compounds were dissolved in DMSO and dilutions were carried out using LB broth. Compounds were test at 100 µM with increasing concentrations of imipenem. […] After inoculation, the plates are incubated at 37 C for 24 hours. The MIC of the compounds were then determined visually. […] For Table 3, 16 μg/mL of compounds were tested for synergy with the carbapenem antibiotic, imipenem, against a K. pneumoniae strain expressing KPC-2.

[2] = molecular target: NDM-1 metallo-beta-lactamase (Klebsiella pneumoniae, UniProt C7C422); test: Steady-state kinetic analysis, nitrocefin hydrolysis, NDM-1; format: biochemical; conditions: second NDM-1 column of Table 1
Sequence of NDM-1 metallo-beta-lactamase (C7C422 whole entry, looked up): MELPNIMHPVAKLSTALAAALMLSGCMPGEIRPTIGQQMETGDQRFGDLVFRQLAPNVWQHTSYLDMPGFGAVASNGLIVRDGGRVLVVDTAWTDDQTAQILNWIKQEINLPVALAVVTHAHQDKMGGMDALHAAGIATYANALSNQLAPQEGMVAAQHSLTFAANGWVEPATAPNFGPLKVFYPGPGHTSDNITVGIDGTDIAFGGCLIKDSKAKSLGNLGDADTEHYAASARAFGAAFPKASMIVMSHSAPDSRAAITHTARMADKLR

VIM-2 = VIM-2 (Escherichia coli, UniProt Q5U7L7); test: Steady-state kinetic analysis, VIM-2; format: biochemical
KPC-2 beta-lactamase = KPC-2 beta-lactamase (Klebsiella pneumoniae, UniProt Q9F663); test: Steady-state kinetic analysis, nitrocefin hydrolysis, KPC-2; format: biochemical; conditions: nitrocefin substrate
Sequence of KPC-2 beta-lactamase (Q9F663 whole entry, looked up): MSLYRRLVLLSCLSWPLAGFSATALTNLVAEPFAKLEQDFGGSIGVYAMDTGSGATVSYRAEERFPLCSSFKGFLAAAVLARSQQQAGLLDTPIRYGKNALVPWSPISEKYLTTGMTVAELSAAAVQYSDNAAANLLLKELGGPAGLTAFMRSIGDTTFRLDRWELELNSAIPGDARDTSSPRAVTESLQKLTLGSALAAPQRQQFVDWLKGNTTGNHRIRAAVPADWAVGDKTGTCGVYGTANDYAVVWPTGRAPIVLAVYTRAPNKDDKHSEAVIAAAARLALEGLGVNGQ
Protocol: Fractions were analyzed by SDS-PAGE.
(§2) Steady-State Kinetic Analysis. Steady-state kinetic parameters were determined by using a Biotek Cytation Multi-Mode Reader. For KPC-2, each assay was performed in 100 mM Tris-HCl pH 7.0, 0.01% Triton X-100 at 37 C. […] Compounds according to Formulas 5-10 were purchased from commercial sources. The last compound was de novo synthesized.

His-tag SHV-2 = His-tag SHV-2 (Escherichia coli, UniProt P0A9Z7)
Sequence of His-tag SHV-2 (P0A9Z7 22-286 limits assumed): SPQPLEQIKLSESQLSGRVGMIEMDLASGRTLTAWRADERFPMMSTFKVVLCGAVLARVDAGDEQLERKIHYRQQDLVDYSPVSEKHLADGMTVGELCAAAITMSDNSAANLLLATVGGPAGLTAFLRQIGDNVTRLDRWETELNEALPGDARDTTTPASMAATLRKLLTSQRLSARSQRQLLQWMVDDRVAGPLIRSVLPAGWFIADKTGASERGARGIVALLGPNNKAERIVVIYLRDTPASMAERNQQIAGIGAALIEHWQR
Protocol: as §2, with “C. Vmax and Km were determined from initial steady-state velocities from nitrocefin read at a wavelength of 486 nm. The kinetic parameters were obtained using the non-linear portion of the data to the Henri-Michaelis (equation 1) using SigmaPlot 12.5.” for “C.”

[3] = test system: BL21(DE3) E. coli expressing KPC-2; test: MIC study, synergy with imipenem, broth microdilution, E. coli; format: cell-based; conditions: imipenem alone; E. coli BL21(DE3) pET-GST-blaKPC-2; 37 C, 24 hours
Protocol: as §1

For `Cc1cc2oc(=O)cc(CP(=O)(O)O)c2cc1C` [Compound 73043], the MIC [1] was >32 µg/mL.

In the case of `Cc1cc(Br)c2c(CP(=O)(O)O)cc(=O)oc2c1` [Compound 994942], the Ki [2] is reported as 55 µM and the Ki (VIM-2) is reported as 1.8 µM.

For `O=c1cc(CP(=O)(O)O)c2ccccc2[nH]1` [Compound 994943], the Ki (VIM-2) was 9.12 µM.

Compound `O=c1cc(CP(=O)(O)O)c2c(F)cc(F)cc2o1` [Compound 995015] has a Ki (VIM-2) of 4.7 µM.

Compound `O=P(O)(O)Cc1cccc2cccnc12` [Compound 995016] has a Ki (VIM-2) of 24.3 µM.

`Cn1c(=O)cc(CP(=O)(O)O)c2ccccc21` [Compound 995018] showed a Ki (VIM-2) of 15.6 µM.

With `O=P(O)(O)Cc1cccc2ccc[n+]([O-])c12` [Compound 995019] the “NDM-1 Ki” value [2] was “precipitation”, the “His-Tag KPC-2 Ki” value (KPC-2 beta-lactamase) was “precipitation” and the “His-tag SHV-2 Ki” value (His-tag SHV-2) was “precipitation”. For the same compound, the “VIM-2 Ki” value (VIM-2) was “precipitation”.

`C[C@@H](O)[C@H]1C(=O)N2C(C(=O)O)=C(SCCN=CN)C[C@H]12` [Imipenem, imipenem, reference compound] was tested, and the MIC [1] was 8 µg/mL and the MIC [3] was 4 µg/mL.

Reference: patent US10543221B2, “Beta-lactamase inhibitors, formulations, and uses thereof” (priority 2016, dated 2020)
